Measurements taken from ChEMBL document CHEMBL1201862, “PubChem BioAssay data set” (2004).
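Following 48 hours of exposure in 96-well plates, responses at five concentrations were used to interpolate endpoints linearly. Here, GI50 denotes the concentration required for 50% inhibition of growth.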 Calls of active or inactive are those of the source. No stated cut-off is given here; in the data, active = GI50 up to about 1.1 µM and inactive = higher.

Experiments:
Test in all cases: DTP human tumour cell line panel, 48 h
UACC-62 = test system: UACC-62
HCT-15 = test system: HCT-15
U-251 = test system: U-251
KM12 = test system: KM12
NCI-H460 = test system: NCI-H460
OVCAR-4 = test system: OVCAR-4
RXF 393 = test system: RXF 393
M19-MEL = test system: M19-MEL
A498 = test system: A498
OVCAR-3 = test system: OVCAR-3
SF-539 = test system: SF-539
SK-OV-3 = test system: SK-OV-3
CCRF-CEM = test system: CCRF-CEM
NCI-H23 = test system: NCI-H23
A549 = test system: A549
MDA-MB-231 = test system: MDA-MB-231
MCF7 = test system: MCF7
PC-3 = test system: PC-3
NCI/ADR-RES = test system: NCI/ADR-RES
Hs-578T = test system: Hs-578T

Row | SMILES | GI50 (UACC-62) | GI50 (HCT-15) [µM] | GI50 (U-251) | GI50 (KM12) | GI50 (NCI-H460) | GI50 (OVCAR-4) | GI50 (RXF 393) | GI50 (M19-MEL) | GI50 (A498) | GI50 (OVCAR-3) | GI50 (SF-539) | GI50 (SK-OV-3) | GI50 (CCRF-CEM) | GI50 (NCI-H23) | GI50 (A549) | GI50 (MDA-MB-231) | GI50 (MCF7) | GI50 (PC-3) | GI50 (NCI/ADR-RES) | GI50 (Hs-578T)
1 | C=CCC12CC(=O)CCC1c1ccc(OC)cc1C2=O (stereo unspecified) | > 100 µM (inactive) | > 100 | > 100 µM (inactive) | > 100 µM (inactive) | > 100 µM (inactive) | > 100 µM (inactive) | > 100 µM (inactive) | > 100 µM (inactive) | > 100 µM (inactive) | > 100 µM (inactive) | > 100 µM (inactive) | > 100 µM (inactive) | > 100 µM (inactive) | > 100 µM (inactive) | > 100 µM (inactive) | – | – | – | – | –
2 | OCC1CC2C=CCC(C2)C1 (stereo unspecified) | > 100 µM (inactive) | – | > 100 µM (inactive) | > 100 µM (inactive) | > 100 µM (inactive) | > 100 µM (inactive) | > 100 µM (inactive) | > 100 µM (inactive) | > 100 µM (inactive) | > 100 µM (inactive) | > 100 µM (inactive) | > 100 µM (inactive) | > 100 µM (inactive) | > 100 µM (inactive) | > 100 µM (inactive) | – | – | – | – | –
3 | CC(=O)Nc1ccc(/C=C/C(=O)c2sc(-n3nc(-c4ccccc4)cc3-c3ccccc3)nc2C)cc1 | > 10 µM (inactive) | > 10 | > 10 µM (inactive) | 64.9 µM (inactive) | > 10 µM (inactive) | 78.7 µM (inactive) | > 10 µM (inactive) | > 10 µM (inactive) | > 10 µM (inactive) | > 10 µM (inactive) | > 10 µM (inactive) | > 10 µM (inactive) | > 10 µM (inactive) | > 10 µM (inactive) | > 10 µM (inactive) | – | – | – | – | –
4 | CCOC(=O)C1(Br)C(c2ccccc2)NC(=O)N(C2OC(COC(=O)c3ccccc3)C(OC(=O)c3ccccc3)C2OC(=O)c2ccccc2)C1(C)Br (stereo unspecified) | 10.6 µM (inactive) | 15.8 | 27.8 µM (inactive) | 21.6 µM (inactive) | 31 µM (inactive) | 13.9 µM (inactive) | 14.5 µM (inactive) | 28.4 µM (inactive) | 38.9 µM (inactive) | 29.6 µM (inactive) | 38.7 µM (inactive) | 42.9 µM (inactive) | 3.15 µM (inactive) | 29.4 µM (inactive) | 12.9 µM (inactive) | – | – | – | – | –
5 | Cc1cccc(C)c1NC(=O)C(=O)CC(=O)CO | > 100 µM (inactive) | > 100 | > 100 µM (inactive) | > 100 µM (inactive) | > 100 µM (inactive) | > 100 µM (inactive) | > 100 µM (inactive) | > 100 µM (inactive) | > 100 µM (inactive) | > 100 µM (inactive) | > 100 µM (inactive) | > 100 µM (inactive) | > 100 µM (inactive) | > 100 µM (inactive) | > 100 µM (inactive) | – | – | – | – | –
6 | O=C1c2cnccc2Cc2cccc3c2N1c1ccccc1S3 | 18 µM (inactive) | 23.3 | 16.6 µM (inactive) | 19.7 µM (inactive) | – | 21.5 µM (inactive) | 21.6 µM (inactive) | 28.9 µM (inactive) | 20.7 µM (inactive) | 17.7 µM (inactive) | 20.6 µM (inactive) | – | 27.5 µM (inactive) | 20.1 µM (inactive) | 23.6 µM (inactive) | – | – | – | – | –
7 | O=C(O)CN(CC(=O)O)Cc1cc(C#Cc2ccc(C#Cc3ccccc3)cc2)cc(CN(CC(=O)O)CC(=O)O)n1 | 12.4 µM (inactive) | 5.98 | 5.11 µM (inactive) | 16.8 µM (inactive) | 17.7 µM (inactive) | 10.2 µM (inactive) | 15.7 µM (inactive) | 17.5 µM (inactive) | 40.6 µM (inactive) | 9.02 µM (inactive) | 20.7 µM (inactive) | 56 µM (inactive) | 29.4 µM (inactive) | 32.7 µM (inactive) | 29.1 µM (inactive) | 7.11 µM (inactive) | 16.5 µM (inactive) | 4.12 µM (inactive) | 12.7 µM (inactive) | 46.8 µM (inactive)
8 | Nc1ccc(N)c2c1C(=O)c1c(N)ccc(N)c1C2=O | 58.3 µM (inactive) | > 66.5 | 50 µM (inactive) | 60.8 µM (inactive) | > 73.5 µM (inactive) | 37.1 µM (inactive) | 35 µM (inactive) | > 71.1 µM (inactive) | 61 µM (inactive) | 25.1 µM (inactive) | 31.8 µM (inactive) | > 74.5 µM (inactive) | 23.8 µM (inactive) | > 73.1 µM (inactive) | 62.7 µM (inactive) | – | – | – | – | –
9 | COC(=O)C(=O)C1CCCCC(C2=NC3NN=C(N)N3C2=O)C1=O (stereo unspecified) | > 100 µM (inactive) | > 100 | > 100 µM (inactive) | > 100 µM (inactive) | > 100 µM (inactive) | > 100 µM (inactive) | 63 µM (inactive) | > 100 µM (inactive) | > 100 µM (inactive) | > 100 µM (inactive) | > 100 µM (inactive) | > 100 µM (inactive) | > 100 µM (inactive) | > 100 µM (inactive) | > 100 µM (inactive) | – | – | – | – | –
10 | C[C@]12CCC[C@H](Cl)C1(O)C[C@H](C(=O)O)CC2 (stereo partly specified) | > 100 µM (inactive) | > 100 | > 100 µM (inactive) | > 100 µM (inactive) | > 100 µM (inactive) | > 100 µM (inactive) | > 100 µM (inactive) | > 100 µM (inactive) | > 100 µM (inactive) | > 100 µM (inactive) | > 100 µM (inactive) | > 100 µM (inactive) | > 100 µM (inactive) | > 100 µM (inactive) | > 100 µM (inactive) | – | – | – | – | –
11 | Cc1c(Cl)ccc2c1NC(=O)C2(O)CC(=O)c1ccc(Cl)cc1 (stereo unspecified) | 33.5 µM (inactive) | 28.2 | 60.8 µM (inactive) | 51.2 µM (inactive) | 29.6 µM (inactive) | 43.7 µM (inactive) | 31.2 µM (inactive) | 6.62 µM (inactive) | > 43.3 µM (inactive) | 57.3 µM (inactive) | 65.2 µM (inactive) | > 100 µM (inactive) | 14.5 µM (inactive) | 54.5 µM (inactive) | > 100 µM (inactive) | – | – | – | – | –
12 | N#CC12CCC(O)C(CC1)C2=O (stereo unspecified) | > 100 µM (inactive) | > 100 | > 100 µM (inactive) | > 100 µM (inactive) | 70 µM (inactive) | > 100 µM (inactive) | > 100 µM (inactive) | > 100 µM (inactive) | > 100 µM (inactive) | > 100 µM (inactive) | > 100 µM (inactive) | > 100 µM (inactive) | > 100 µM (inactive) | > 100 µM (inactive) | > 100 µM (inactive) | – | – | – | – | –
13 | COc1cc2c(cc1OC)C(CC1=C(c3ccccc3)CN3CCc4cc(OC)c(OC)cc4C3C1)NCC2 (stereo unspecified) | 20.4 µM (inactive) | 17.7 | 15.2 µM (inactive) | 17.2 µM (inactive) | 18.8 µM (inactive) | 14 µM (inactive) | 2.66 µM (inactive) | 17 µM (inactive) | 16.7 µM (inactive) | 17.3 µM (inactive) | – | 28 µM (inactive) | 14.6 µM (inactive) | 23.1 µM (inactive) | 17 µM (inactive) | – | – | – | – | –
14 | Cc1ccc(NC(=O)C(=O)C(C#N)c2nc(-c3ccc(-c4ccccc4)cc3)cs2)c(C)c1 (stereo unspecified) | > 100 µM (inactive) | > 100 | 47.3 µM (inactive) | – | > 100 µM (inactive) | > 100 µM (inactive) | > 100 µM (inactive) | > 100 µM (inactive) | > 100 µM (inactive) | > 100 µM (inactive) | > 100 µM (inactive) | > 100 µM (inactive) | – | – | > 100 µM (inactive) | – | – | – | – | –
15 | COCN(C)c1nc(N(C)C)nc(N(C)C)n1 | > 100 µM (inactive) | > 100 | > 100 µM (inactive) | > 100 µM (inactive) | > 100 µM (inactive) | > 100 µM (inactive) | 40.3 µM (inactive) | > 100 µM (inactive) | > 100 µM (inactive) | > 100 µM (inactive) | > 100 µM (inactive) | > 100 µM (inactive) | > 100 µM (inactive) | > 100 µM (inactive) | > 100 µM (inactive) | – | – | – | – | –
16 | O=C(O)/C(Cl)=C(\Cl)C(=O)Nc1ccccc1 | > 100 µM (inactive) | > 100 | > 100 µM (inactive) | > 100 µM (inactive) | > 100 µM (inactive) | > 100 µM (inactive) | > 100 µM (inactive) | > 100 µM (inactive) | > 100 µM (inactive) | > 100 µM (inactive) | > 100 µM (inactive) | > 100 µM (inactive) | 69.3 µM (inactive) | > 100 µM (inactive) | > 100 µM (inactive) | – | – | – | – | –
17 | Cc1cccc(C)c1N1C(=O)C(=O)C(c2nc3ccccc3s2)/C(=N/c2cccc3c(=O)[nH][nH]c(=O)c23)C1=O (stereo unspecified) | > 100 µM (inactive) | > 100 | 83 µM (inactive) | > 100 µM (inactive) | > 100 µM (inactive) | 79.3 µM (inactive) | – | > 100 µM (inactive) | > 100 µM (inactive) | > 100 µM (inactive) | > 100 µM (inactive) | > 100 µM (inactive) | 45.7 µM (inactive) | > 100 µM (inactive) | > 100 µM (inactive) | – | – | – | – | –
18 | CCCCc1c2c(nc3c1CCc1cc4c(nc1-3)-c1nc3c(c(CCCC)c1CC4)CCC/C3=C\c1ccccc1)/C(=C/c1ccccc1)CCC2 | 97.3 µM (inactive) | > 100 | 47.3 µM (inactive) | 98.9 µM (inactive) | 28.2 µM (inactive) | – | 23.3 µM (inactive) | > 100 µM (inactive) | > 100 µM (inactive) | 40.6 µM (inactive) | 33.5 µM (inactive) | 36.2 µM (inactive) | 48.6 µM (inactive) | 73.5 µM (inactive) | > 100 µM (inactive) | – | – | – | – | –
